Assay results reported in ChEMBL document CHEMBL6071148, “Synthesis and biological evaluation of novel 3,6- amide and thioamide substituted- 2,3,4,9-tetrahydro-1H-carbazoles for anti-cancer activity” (Eur J Med Chem, 2024).
Calls of active or inactive are those of the source. The rule behind the calls is not given here.

Tests used:
MCF7 [1] = test: Induction of cell cycle arrest in human MCF7 cells assessed as accumulation of cells at S phase at IC50 incubated for 24 hrs by PI staining based flow cytometric analysis relative to control; format: functional
A549 [2] = test: Induction of cell cycle arrest in human A549 cells assessed as accumulation of cells at G1 phase at IC50 incubated for 24 hrs by PI staining based flow cytometric analysis (reference value: 37.40 +/- 2.40%); format: functional
MCF7 [3] = test: Induction of cell cycle arrest in human MCF7 cells assessed as accumulation of cells at G2 phase at IC50 incubated for 24 hrs by PI staining based flow cytometric analysis relative to control; format: functional
A549 [4] = test: Induction of apoptosis in human A549 cells assessed as apoptotic rate at IC50 incubated for 24 hrs by Annexin-V and 7-AAD staining based flow cytometric analysis (reference value: 4.56 +/- 0.81%); format: functional
HCT-116 [5] = test: Induction of DNA damage in human HCT-116 cells assessed as gammaH2AX positive cells at IC50 incubated for 48 hrs by PI staining based flow cytometric analysis (reference value: 6.24 +/- 1.94%); format: functional
HCT-116 [6] = test: Induction of apoptosis in human HCT-116 cells assessed as increase in apoptotic cells incubated for 48 hrs by Annexin-V and 7-AAD staining based flow cytometric analysis (reference value: 6.82 +/- 1.05%); format: functional
A549 [7] = test: Induction of cell cycle arrest in human A549 cells assessed as accumulation of cells at G2 phase at IC50 incubated for 48 hrs by PI staining based flow cytometric analysis (reference value: 38.15 +/- 1.80%); format: functional
A549 [8] = test: Induction of apoptosis in human A549 cells assessed as apoptotic rate at IC50 incubated for 48 hrs by Annexin-V and 7-AAD staining based flow cytometric analysis (reference value: 6.56 +/- 1.17%); format: functional
MCF7 [9] = test: Induction of apoptosis in human MCF7 cells assessed as increase in apoptotic cells incubated for 48 hrs by Annexin-V and 7-AAD staining based flow cytometric analysis (reference value: 7.53 +/- 1.16%); format: functional
MCF7 [10] = test: Cytotoxicity against human MCF7 cells assessed as inhibition of cell proliferation incubated for 72 hrs by MTT assay; format: functional, cell-based; conditions: MCF7, 72 h
HCT-116 [11] = test: Induction of cell cycle arrest in human HCT-116 cells assessed as accumulation of cells at G2 phase at IC50 incubated for 24 hrs by PI staining based flow cytometric analysis relative to control; format: functional
HCT-116 [12] = test: Induction of apoptosis in human HCT-116 cells assessed as increase in apoptotic cells incubated for 24 hrs by Annexin-V and 7-AAD staining based flow cytometric analysis (reference value: 8.10 +/- 2.16%); format: functional
[13] = Cytotoxicity against human MRC5 cells assessed as inhibition of cell proliferation incubated for 72 hrs by MTT assay; format: toxicity, cell-based
A549 [14] = test: Induction of DNA damage in human A549 cells assessed as gammaH2AX positive cells at IC50 incubated for 48 hrs by PI staining based flow cytometric analysis (reference value: 4.90 +/- 0.50%); format: functional
MCF7 [15] = test: Induction of cell cycle arrest in human MCF7 cells assessed as accumulation of cells at G1 phase at IC50 incubated for 24 hrs by PI staining based flow cytometric analysis relative to control; format: functional
A549 [16] = test: Induction of cell cycle arrest in human A549 cells assessed as accumulation of cells at G1 phase at IC50 incubated for 48 hrs by PI staining based flow cytometric analysis (reference value: 53.5 +/- 4.01%); format: functional
A549 [17] = test: Cytotoxicity against human A549 cells assessed as inhibition of cell proliferation incubated for 72 hrs by MTT assay; format: functional, cell-based; conditions: A549, 72 h
HCT-116 [18] = test: Cytotoxicity against human HCT-116 cells assessed as inhibition of cell proliferation incubated for 72 hrs by MTT assay; format: functional, cell-based; conditions: HCT-116, 72 h
A549 [19] = test: Induction of cell cycle arrest in human A549 cells assessed as accumulation of cells at G2 phase at IC50 incubated for 24 hrs by PI staining based flow cytometric analysis (reference value: 23.45 +/- 1.62%); format: functional
MCF7 [20] = test: Induction of apoptosis in human MCF7 cells assessed as increase in apoptotic cells incubated for 24 hrs by Annexin-V and 7-AAD staining based flow cytometric analysis (reference value: 5.70 +/- 1.56%); format: functional
HCT-116 [21] = test: Induction of cell cycle arrest in human HCT-116 cells at IC50 incubated for 48 hrs by PI staining based flow cytometric analysis; format: functional
MCF7 [22] = test: Induction of DNA damage in human MCF7 cells assessed as gammaH2AX positive cells at IC50 incubated for 48 hrs by PI staining based flow cytometric analysis (reference value: 7.58 +/- 1.23%); format: functional
Mitochondrial membrane [23] = test: Induction of mitochondrial membrane depolarization in human HCT-116 cells assessed as increase in mitochondrial fission by measuring appearance of shortened mitochondria by confocal microscopic analysis; format: cell membranes
A549 [24] = test: Inhibition of colony formation in human A549 cells assessed as reduction in clonogenic capacity incubated for 24 hrs by crystal violet staining based analysis; format: functional, cell-based
Mitochondrial membrane [25] = test: Disruption of mitochondrial membrane integrity in human HCT-116 cells assessed as change in mitochondrial size by TEM analysis; format: cell membranes
Mitochondrial membrane [26] = test: Disruption of mitochondrial membrane potential in human HCT-116 cells assessed as translocation of cytochrome c to cytoplasm at IC50 incubated for 48 hrs by confocal microscopic analysis; format: cell membranes
[27] = Toxicity in chicken embryo chorioallantoic membrane at nanomolar concentration measured at day 6 by Kaplan Mayer survival analysis; format: tissue-based, Gallus gallus; conditions: in vivo
HCT-116 [28] = test: Induction of cell cycle arrest in human HCT-116 cells assessed as accumulation of cells at S phase at IC50 incubated for 48 hrs by PI staining based flow cytometric analysis; format: functional
[29] = Toxicity in chicken embryo chorioallantoic membrane assessed as survival rate at 1.5 uM measured at day 6 by Kaplan Mayer survival analysis relative to control; format: tissue-based, Gallus gallus
A549 [30] = test: Induction of cell cycle arrest in human A549 cells assessed as accumulation of cells at S phase at IC50 incubated for 24 hrs by PI staining based flow cytometric analysis (reference value: 39.41 +/- 2.54%); format: functional
A549 [31] = test: Inhibition of cell adhesion in human A549 cells assessed as reduction in cell aggregates formation at IC50 incubated for 48 hrs by inverted phase contrast microscopic analysis; format: functional, cell-based
Mitochondrial membrane [32] = test: Disruption of mitochondrial membrane integrity in human HCT-116 cells assessed as presence of large mitochondria by TEM analysis; format: cell membranes
Mitochondrial membrane [33] = test: Disruption of mitochondrial membrane integrity in human HCT-116 cells assessed as change in mitochondrial shape by TEM analysis; format: cell membranes
MCF7 [34] = test: Inhibition of colony formation in human MCF7 cells assessed as reduction in clonogenic capacity incubated for 24 hrs by crystal violet staining based analysis; format: functional, cell-based
Mitochondrial membrane [35] = test: Disruption of mitochondrial membrane integrity in human HCT-116 cells assessed as mitochondrial swelling by TEM analysis; format: cell membranes
Mitochondrial membrane [36] = test: Disruption of mitochondrial membrane integrity in human HCT-116 cells assessed as absence of well-developed cristae by TEM analysis; format: cell membranes
Mitochondrial membrane [37] = test: Induction of mitochondrial membrane depolarization in human HCT-116 cells assessed as increase in mitochondrial fission by measuring appearance of circular mitochondria by confocal microscopic analysis; format: cell membranes
Mitochondrial membrane [38] = test: Induction of mitochondrial membrane depolarization in human HCT-116 cells assessed as increase in mitochondrial fission by measuring appearance of spherical mitochondria by confocal microscopic analysis; format: cell membranes
Mitochondrial membrane [39] = test: Disruption of mitochondrial membrane integrity in human HCT-116 cells assessed as change in mitochondrial internal organization by TEM analysis; format: cell membranes
Mitochondrial membrane [40] = test: Induction of mitochondrial membrane depolarization in human A549 cells assessed as decrease in ratio of J-aggregates to J-monomer incubated for 24 hrs by JC-1 staining based flow cytometric analysis (reference value: 17.72 +/- 3.94%); format: cell membranes
Mitochondrial membrane [41] = test: Disruption of mitochondrial membrane integrity in human HCT-116 cells assessed as disruption of normal mitochondrial distribution by TEM analysis; format: cell membranes
A549 [42] = test: Induction of DNA damage in human A549 cells assessed as increase in gammaH2AX positive cells at IC50 incubated for 48 hrs by PI staining based flow cytometric analysis; format: functional, cell-based
Mitochondrial membrane [43] = test: Disruption of mitochondrial membrane integrity in human HCT-116 cells assessed as organization of mtDNA nucleoids within cells by TEM analysis; format: cell membranes
[44] = Toxicity in chicken embryo chorioallantoic membrane assessed as survival rate at 4.5 uM measured at day 6 by Kaplan Mayer survival analysis relative to control; format: tissue-based, Gallus gallus
Mitochondrial membrane [45] = test: Disruption of mitochondrial membrane integrity in human HCT-116 cells assessed as presence of bloated mitochondria by TEM analysis; format: cell membranes
HCT-116 [46] = test: Induction of cell cycle arrest in human HCT-116 cells assessed as accumulation of cells at G1 phase at IC50 incubated for 48 hrs by PI staining based flow cytometric analysis relative to control; format: functional
HCT-116 [47] = test: Inhibition of colony formation in human HCT-116 cells assessed as reduction in clonogenic capacity incubated for 24 hrs by crystal violet staining based analysis; format: functional, cell-based
HCT-116 [48] = test: Inhibition of cell adhesion in human HCT-116 cells assessed as reduction in cell aggregates formation at IC50 incubated for 48 hrs by inverted phase contrast microscopic analysis; format: functional, cell-based
HCT-116 [49] = test: Induction of cell cycle arrest in human HCT-116 cells assessed as accumulation of cells at G1 phase at IC50 incubated for 24 hrs by PI staining based flow cytometric analysis relative to control; format: functional

O=C1c2c(O)ccc(O)c2C(=O)c2c(NCCNCCO)ccc(NCCNCCO)c21 [MITOXANTRONE]
Activity (MCF7 [1]): 17.9%
Activity (A549 [2]): 34.62%
Activity (MCF7 [3]): 33.2%
Activity (A549 [4]): 30.26%
Activity (HCT-116 [5]): 32.47%
Activity (HCT-116 [6]): 31.1%
Activity (A549 [7]): 29.8%
Activity (A549 [8]): 32.27%
Activity (MCF7 [9]): 67.63%
IC50 (MCF7 [10]): 0.018 µM
Activity (HCT-116 [11]): 26.3%
Activity (HCT-116 [12]): 32.01%
IC50 at 72 h [13]: 0.517 µM
Activity (A549 [14]): 14.22%
Activity (MCF7 [15]): 44.4%
Activity (A549 [16]): 48.61%
IC50 (A549 [17]): 0.164 µM
IC50 (HCT-116 [18]): 0.127 µM
Activity (A549 [19]): 20.2%
Activity (MCF7 [20]): 11.55%
Activity (HCT-116 [21]): Active
Activity (MCF7 [22]): 23.01%

CC(=O)Nc1ccc2[nH]c3c(c2c1)CC(NC(=O)c1cc2ccccc2[nH]1)CC3 (centres undefined)
IC50 (MCF7 [10]): > 50 µM
IC50 at 72 h [13]: > 50 µM
IC50 (A549 [17]): > 50 µM
IC50 (HCT-116 [18]): > 50 µM

CC(=O)Nc1ccc2[nH]c3c(c2c1)CC(NC(C)=O)CC3 (centres undefined)
IC50 (MCF7 [10]): > 50 µM
IC50 at 72 h [13]: > 50 µM
IC50 (A549 [17]): > 50 µM
IC50 (HCT-116 [18]): > 50 µM

CC(=S)NC1CCc2[nH]c3ccc(OC(F)(F)F)cc3c2C1 (centres undefined)
Activity (Mitochondrial membrane [23]): Active
inhibition (A549 [24]): Dose-Dependent Effect
Activity (Mitochondrial membrane [25]): Active
Activity (Mitochondrial membrane [26]): Active
Activity [27]: Non-Toxic
Activity (HCT-116 [28]): 18.9%
survival at 1.5 µM [29]: 70%
Activity (A549 [4]): 16.64%
Activity (HCT-116 [5]): 14.63%
Activity (HCT-116 [6]): 45.03%
Activity (A549 [30]): 15.45%
inhibition (A549 [31]): Active
Activity (A549 [7]): 46.75%
Activity (Mitochondrial membrane [32]): Active
Activity (Mitochondrial membrane [33]): Active
Activity (A549 [8]): 27.97%
inhibition (MCF7 [34]): Dose-Dependent Effect
Activity (Mitochondrial membrane [35]): Active
Activity (Mitochondrial membrane [36]): Active
IC50 (MCF7 [10]): 31 µM
Activity (HCT-116 [11]): 17.95%
Activity (Mitochondrial membrane [37]): Active
Activity (HCT-116 [12]): 17.5%
IC50 at 72 h [13]: > 50 µM
Activity (Mitochondrial membrane [38]): Active
Activity (Mitochondrial membrane [39]): Active
Activity (A549 [16]): 53.35%
Activity (Mitochondrial membrane [40]): 16.9
Activity (Mitochondrial membrane [41]): Active
Activity (A549 [42]): Active
Activity (Mitochondrial membrane [43]): Active
IC50 (A549 [17]): 25.7 µM
IC50 (HCT-116 [18]): 23.6 µM
survival at 4.5 µM [44]: 70%
Activity (Mitochondrial membrane [45]): Active
Activity (HCT-116 [46]): 31.15%
inhibition (HCT-116 [47]): Dose-Dependent Effect
inhibition (HCT-116 [48]): Active
Activity (HCT-116 [49]): 16.95%
